# Reference: patent US5795899A, “Soluble salts of 4-amino-2-(4,4-dimethylimidazolidin-2-on-1-yl) pyrimidine-5-carboxylic acid N-methyl-N-(3-trifluoromethylphenyl)-amide, a process for the preparation thereof, the use thereof as pharmaceuticals and starting materials” (Hoechst Aktiengesellschaft, priority 1992, dated 1998)
# How the values were obtained:
# hypercholesterolemia = test: Effect on experimental hypercholesterolemia in male rats; type: in vivo, male Wistar rats, HOE: WISKf (SPF 71) strain; conditions: oral, 7 days; for Total cholesterol (x): mean x
# Description: Groups of in each case 10 male rats of the HOE: WISKf (SPF 71) strain with a weight of about 200 g received each day in the morning a cocktail which contained the substances required to generate a combined dietetic/hormonal hypercholesterolemia, and in each case the product to be tested for the inhibition of hypercholesterolemia, in appropriate dosage. The cocktail was composed of a mixture of 100 g of cholesterol, 30 g of propylthiouracil and 100 g of cholic acid in 1 l of peanut oil. 1 ml of this/100 g of body weight was administered by gavage. The products to be tested were suspended in this cocktail in a concentration such that it contained the daily dose indicated in Table 4 on administration of the amount mentioned above. The other procedure for the treatment and the analysis of the individual parameters were carried out as indicated under 4.1.
# Clofibrate was used as comparison product. The results are compiled in Table 4, wherein a) indicates the absolute values and b) indicates the percentage changes.
# physchem = conditions: water
# [1] = Side effects like those observed with the statins; conditions: general statement
# [2] = tested on: carbohydrate-induced hypertriglyceridemia; test: Inhibition of carbohydrate-induced hypertriglyceridemia; type: in vivo, male Sprague-Dawley rats; conditions: oral, 4 days; for Triglycerides in serum (x): mean x
# Description: Groups of in each case 10 male Sprague-Dawley rats (supplied by the breeder Mollegard with a weight of 250-280 g) received on each of 4 consecutive days one administration of the compound dissolved in PEG 400 by gavage. In addition, after the 3rd administration and 8 and 24 hours later they received 2.5 g of fructose/kg, likewise by gavage. Moreover, after the 3rd administration of product, 50% strength fructose solution was offered to them as drinking water ad libitum, and the food was withdrawn. Retroorbital removal of blood, from which the serum was obtained for the triglyceride determination and VLDL preparation in the ultracentrifuge (flotation at d=1.006), took place 3 hours after the last product/fructose administration. The food received by the animals from 1 week before the 1st administration and up to the 3rd administration was a diet with 40% casein in the feed meal.
# The animals develop, as a result of this treatment, a hypertriglyceridemia which approximately corresponds to Fredrickson phenotype IV in humans. The serum triglycerides of the normal animals increased from 0.54 to 1.1 mmol/l, and the VLDL triglycerides from 0.67 to 1.81.
# serum lipoproteins = test: Effect on serum lipoproteins of normolipemic male rats in a subchronic test; type: in vivo, male Wistar rats, HOE: WISKf (SPF 71) strain; conditions: for % change compared with control, protein LDL / % change compared with control, total cholesterol LDL / % change compared with control, total cholesterol VLDL / % change compared with control, triglycerides VLDL: oral, 7 days
# Description: 4.1 Effect on serum lipoproteins of normolipemic male rats in a subchronic test
# Groups of in each case 10 male rats of the HOE: WISKf (SPF 71) strain with an initial weight above 180 g received once a day (in the morning) the test product or the comparison product in 1% aqueous ®Tylose MH 300 solution by stomach tube (0.5 ml/100 g of body weight); the control group in each case received only the vehicle. The last (7th) administration took place 24 hours before removal of blood and sacrifice. There was free access to food and water during the test. The food was withdrawn 24 hours before the removal of blood.
# The serum from all 10 rats in a group was pooled for the analysis of the serum lipoproteins. The serum lipoproteins were separated with a preparative ultracentrifuge (KONTRON TGA 65, Rotor BECKMAN 50.4 Ti).
# The following conditions specified by Koga, S., Horwitz, D. L., and Scanu, A. M., Journal of Lipid Research 10, 577 (1969) and Havel, R. J., Eder, H. A., and Bragdon, H. H., J. Clin. Invest. 34, 1345 (1955) were used to separate VLDL, LDL and HDL:
# Test kits from BOEHRINGER/Mannheim were used for the enzymatic determination of cholesterol and triglycerides in the separated lipoprotein fractions (compare Siedel, J., Schlumberger, H., Klose, S., Ziegenhorn, J. and Wahlefeld, A. W., J. Clin. Chem. Clin. Biochem. 19, 838 (1981) and Wahlefeld, A. W., in: H. O. Bergmeier: Methoden der enzymatischen Analyse (Methods of Enzymatic Analysis), 2nd edition, Volume II, Verlag Chemie 1974, page 1878). The proteins were determined by the method of Lowry (Lowry, O. H., Roseborough, N. J., Farr, A. L. and R. J. Randell, J. Biol. Chem. 193, 265 (1951)).
# Clofibrate was used as comparison product.
# [3] = tested on: tumor cells (L 1210, A 549, HT 29); test: Cell proliferation inhibition (MTT assay), overall statement; type: cell-based, mouse and human
# Description: The reduced inhibitory effect on cell proliferation was tested on exponentially growing animal (mouse leukemia cells, L 1210) and human (bronchial carcinoma cells, A 549; colon carcinoma cells, HT 29) tumor cells. This entailed the tumor cells being incubated in RPMI standard medium with various concentrations of the test substances for 72 hours. Cell incubations only in fresh medium served as control. Incubations were set up in quadruplet. […] After incubation for a further 7 to 24 hours, the cell supernatant was carefully removed and the formazan dye in the cells was solubilized by adding DMSO and measured quantitatively by photometry at 492 nm. The ratio of the extinction of the substance incubations to the control incubation was quantified. The coefficient of variation in each incubation series was less than 15%. The following Table 6 indicates the IC50 values (IC50 [μg/ml] is the concentration of the test substance per ml which is necessary for 50% inhibition) from these investigations.
structure (smiles),measurement,setting,value
"CN(C(=O)c1cnc(N2CC(C)(C)NC2=O)nc1N)c1cccc(C(F)(F)F)c1 [Compound I, 4-amino-2-(4,4-dimethylimidazolidin-2-on-1-yl)pyrimidine-5-carboxylic acid N-methyl-N-(3-trifluoromethylphenyl)amide]","% change compared with control, protein ""HDL"" d > 1.04",hypercholesterolemia; 10 mg/kg/day,-7%
same,"% change compared with control, protein LDL",hypercholesterolemia; 10 mg/kg/day,-16%
same,"% change compared with control, protein VLDL",hypercholesterolemia; 10 mg/kg/day,-8%
same,"% change compared with control, total cholesterol ""HDL"" d > 1.04",hypercholesterolemia; 10 mg/kg/day,-14%
same,"% change compared with control, total cholesterol LDL",hypercholesterolemia; 10 mg/kg/day,-13%
same,"% change compared with control, total cholesterol VLDL",hypercholesterolemia; 10 mg/kg/day,-34%
same,"% change compared with control, triglycerides VLDL",hypercholesterolemia; 10 mg/kg/day,-54%
same,"Lipoprotein fraction protein ""HDL""",hypercholesterolemia; 10 mg/kg/day,5004
same,Lipoprotein fraction protein LDL,hypercholesterolemia; 10 mg/kg/day,1040
same,Lipoprotein fraction protein VLDL,hypercholesterolemia; 10 mg/kg/day,1981
same,"Lipoprotein fraction total cholesterol ""HDL""",hypercholesterolemia; 10 mg/kg/day,508
same,Lipoprotein fraction total cholesterol LDL,hypercholesterolemia; 10 mg/kg/day,4099
same,Lipoprotein fraction total cholesterol VLDL,hypercholesterolemia; 10 mg/kg/day,3088
same,Lipoprotein fraction triglycerides VLDL,hypercholesterolemia; 10 mg/kg/day,677
same,"Serum % change compared with control at the end of treatment, total cholesterol",hypercholesterolemia; 10 mg/kg/day,-24%
same,"Serum % change compared with control at the end of treatment, triglycerides",hypercholesterolemia; 10 mg/kg/day,-16%
same,"Triglycerides, pool",hypercholesterolemia; 10 mg/kg/day,2.45 mmol/L
same,Total cholesterol (x),hypercholesterolemia; 10 mg/kg/day,556 mg/dL
same,"% change compared with control, protein ""HDL"" d > 1.04",hypercholesterolemia; 30 mg/kg/day,-24%
same,"% change compared with control, protein LDL",hypercholesterolemia; 30 mg/kg/day,-68%
same,"% change compared with control, protein VLDL",hypercholesterolemia; 30 mg/kg/day,-49%
same,"% change compared with control, total cholesterol ""HDL"" d > 1.04",hypercholesterolemia; 30 mg/kg/day,+79%
same,"% change compared with control, total cholesterol LDL",hypercholesterolemia; 30 mg/kg/day,-92%
same,"% change compared with control, total cholesterol VLDL",hypercholesterolemia; 30 mg/kg/day,-97%
same,"% change compared with control, triglycerides VLDL",hypercholesterolemia; 30 mg/kg/day,-71%
same,"Lipoprotein fraction protein ""HDL""",hypercholesterolemia; 30 mg/kg/day,4090
same,Lipoprotein fraction protein LDL,hypercholesterolemia; 30 mg/kg/day,391
same,Lipoprotein fraction protein VLDL,hypercholesterolemia; 30 mg/kg/day,1105
same,"Lipoprotein fraction total cholesterol ""HDL""",hypercholesterolemia; 30 mg/kg/day,1056
same,Lipoprotein fraction total cholesterol LDL,hypercholesterolemia; 30 mg/kg/day,369
same,Lipoprotein fraction total cholesterol VLDL,hypercholesterolemia; 30 mg/kg/day,126
same,Lipoprotein fraction triglycerides VLDL,hypercholesterolemia; 30 mg/kg/day,425
same,"Serum % change compared with control at the end of treatment, total cholesterol",hypercholesterolemia; 30 mg/kg/day,-81%
same,"Serum % change compared with control at the end of treatment, triglycerides",hypercholesterolemia; 30 mg/kg/day,-62%
same,"Triglycerides, pool",hypercholesterolemia; 30 mg/kg/day,1.10 mmol/L
same,Total cholesterol (x),hypercholesterolemia; 30 mg/kg/day,137 mg/dL
same,solubility,physchem,800 µg/mL
same,solubility,"physchem; Solubility in water: molarity, Table 2, free base, 24.8 °C",2000 µM
same,Side effects of the statin type observed to date,[1],Nor have side effects of this type been observed to date
same,"Triglycerides in serum, % change from fructose control",[2]; 1 mg/kg/day,-36%
same,"Triglycerides in the VDVL fraction, % change from fructose control",[2]; 1 mg/kg/day,-45%
same,"Triglycerides in the VDVL fraction, pool n = 10",[2]; 1 mg/kg/day,1.00 mmol/L
same,Triglycerides in serum (x),[2]; 1 mg/kg/day,0.71 mmol/L
same,"Triglycerides in serum, % change from fructose control",[2]; 3 mg/kg/day,-51%
same,"Triglycerides in the VDVL fraction, % change from fructose control",[2]; 3 mg/kg/day,-62%
same,"Triglycerides in the VDVL fraction, pool n = 10",[2]; 3 mg/kg/day,0.69 mmol/L
same,Triglycerides in serum (x),[2]; 3 mg/kg/day,0.54 mmol/L
same,"Triglycerides in serum, % change from fructose control",[2]; 10 mg/kg/day,-68%
same,"Triglycerides in the VDVL fraction, % change from fructose control",[2]; 10 mg/kg/day,-80%
same,"Triglycerides in the VDVL fraction, pool n = 10",[2]; 10 mg/kg/day,0.37 mmol/L
same,Triglycerides in serum (x),[2]; 10 mg/kg/day,0.35 mmol/L
same,"Triglycerides in serum, % change from fructose control",[2]; 30 mg/kg/day,-74%
same,"Triglycerides in the VDVL fraction, % change from fructose control",[2]; 30 mg/kg/day,-90%
same,"Triglycerides in the VDVL fraction, pool n = 10",[2]; 30 mg/kg/day,0.19 mmol/L
same,Triglycerides in serum (x),[2]; 30 mg/kg/day,0.29 mmol/L
same,"% change compared with control, protein LDL",serum lipoproteins; 1 mg/kg/day,-15%
same,"% change compared with control, total cholesterol LDL",serum lipoproteins; 1 mg/kg/day,-17%
same,"% change compared with control, total cholesterol VLDL",serum lipoproteins; 1 mg/kg/day,+4%
same,"% change compared with control, triglycerides VLDL",serum lipoproteins; 1 mg/kg/day,+8%
same,"% change compared with control, protein LDL",serum lipoproteins; 3 mg/kg/day,-25%
same,"% change compared with control, total cholesterol LDL",serum lipoproteins; 3 mg/kg/day,-32%
same,"% change compared with control, total cholesterol VLDL",serum lipoproteins; 3 mg/kg/day,-24%
same,"% change compared with control, triglycerides VLDL",serum lipoproteins; 3 mg/kg/day,-25%
same,"% change compared with control, protein LDL",serum lipoproteins; 10 mg/kg/day,-41%
same,"% change compared with control, total cholesterol LDL",serum lipoproteins; 10 mg/kg/day,-49%
same,"% change compared with control, total cholesterol VLDL",serum lipoproteins; 10 mg/kg/day,-52%
same,"% change compared with control, triglycerides VLDL",serum lipoproteins; 10 mg/kg/day,-62%
same,"% change compared with control, protein LDL",serum lipoproteins; 30 mg/kg/day,-52%
same,"% change compared with control, total cholesterol LDL",serum lipoproteins; 30 mg/kg/day,-64%
same,"% change compared with control, total cholesterol VLDL",serum lipoproteins; 30 mg/kg/day,-59%
same,"% change compared with control, triglycerides VLDL",serum lipoproteins; 30 mg/kg/day,-79%
same,HDL levels (in words),serum lipoproteins; general statement,unaffected
same,Proliferation inhibition compared with imanixil (HOE 402) / its hydrochloride (in words),[3],distinctly reduced proliferation inhibition
same,Solubility in water (in words),,exceptionally slightly soluble in water
same,1 part by mass dissolves in . . . parts of H2 O,"Table 2, Temp. [°C]: hydrochloride 25.0, nitrate 23.5, p-toluenesulfonate 23.2, hydrogen (R,R)-tartrate 24.6, free base 24.8",1220 parts of H2 O
